{
  "source": "patent US20150124259A1",
  "about": "“Method For Biodynamic Spectroscope Imaging” (Purdue Research Foundation, priority 2013, published 2015)",
  "type_in_all_cases": "cell-based",
  "key": {"[1]": {"tested_on": "DLD-1 tumor spheroid", "assay": "BSI imaging of tumor heterogeneity of drug response in DLD-1 tumor spheroid", "from_the_text": "In a previous co-pending application Ser. No. 13/760,827, entitled “System and Method for Determining Modified States of Health of Living Tissue”, filed on Feb. 6, 2013, and published as Pub. No. 2013/0144151 (the '151 application), the entire disclosure of which is incorporated herein by reference, a method is described that uses time-frequency masks to extract feature vectors. Multiple masks are used to create feature vectors that are then used to classify a drug response. In accordance with the present disclosure, the BSI techniques described herein can use the same or similar time-frequency masks to capture different mechanisms related to the drug action, and then perform the analysis on a per-pixel basis to generate “hyperspectral” maps of the tumor response to drugs. Because the signal-to-noise of single-pixel power spectra for biodynamic spectroscopic imaging (BSI) is not as large as for tissue dynamics spectroscopy (TDS) that averages over many pixels, it is necessary to modify the time-frequency mask from that described in the '151 application. The time-frequency spectral power density is given by S(ω,T). This power spectrum typically has a power-law decay at higher frequencies, with several orders of magnitude in vertical dynamic range. […]"}, "[2]": {"tested_on": "ex vivo biopsy sample of canine multicentric B-cell lymphoma", "assay": "BSI of drug response of ex vivo biopsy sample", "conditions": "two-color pixel map", "from_the_text": "An additional example of BSI is shown in FIG. 18 for an ex vivo biopsy sample of canine multicentric B-cell lymphoma. […] This signature is coded in green in the BSI image. The other spectral signature had low-frequency enhancement and high-frequency suppression, which is coded as red in the BSI image. […] This ex vivo biopsy is responding to the anticancer drug doxorubicin."}, "[3]": {"tested_on": "tumor spheroids (UMR106)", "assay": "Biodynamic spectroscopic imaging (BSI) of mitosis events in tumor spheroids, single-band thresholding (Taxol treatment)", "from_the_text": "The mitosis phase has its own fingerprint because mitosis is one of the most dramatic events in a cell's life. However compared to the dynamic speckle from an entire tumor spheroid, the signal of the mitosis of a single cell is very weak. The statistical TDS technique is not able to show the mitosis events of single cells. On the other hand, BSI may be applied to generate a voxel based microspectrograms. In the current TDS system, the transverse and longitudinal resolution are 9 μm and 18 μm, and the typical size of UMR106 cell in tumor spheroid is about 10 um. Therefore, on the reconstructed image, each pixel contains about 4 cells. However the spectrum of a single pixel is too noisy to perform analysis, so 2×2 pixels can be preferably used as the balance point to calculate the spectra of the voxels. Thus, according to one aspect of the BSI method disclosed herein, the 3D image is reconstructed as voxels, rather than pixels, in which a voxel includes 2×2 pixels. The microspectrograms are then generated for each voxel, rather than pixel, which substantially eliminates the effect of noise in the image.\nTherefore, for a single voxel, the normalized spectra from five datasets (20 mins) can be averaged together, with no risk of “missing” a biological event of the cell. By combining these normalized spectra together, the micro (voxel) spectrograms are generated. The baseline is the averaged spectrum over the entire tissue when it is only surrounded by growth medium. During the entire experimental period, each voxel corresponds to one spectrogram. A frequency vs. time fluctuation spectral response image of the tumor spheroid is constructed.\nThe frequency range is picked at a mid-high frequency band (0.52 Hz to 1 Hz, marked as a box in FIG. 7) and enhancement is picked as the finger print of the mitosis. The enhancement in this frequency range indicates both cell membrane undulation and cell organelle motion during mitosis. […] The prior approach discussed above referred to single-band thresholding that used the third case baseline described above as essentially a pixel-based TDS. This pixel-based TDS approach fails to isolate mitosis from other biological processes and to isolate mitosis from noise. Therefore, single-band thresholding only correctly acquires mitosis information when using the first or second case baselines described above.\nPaclitaxel is a mitotic inhibitor used as an anti-cancer drug. It can stabilize microtubules so that cell division during mitosis can be interrupted. Experiments were performed using 2 concentrations of Paclitaxel: 1 μg/ml and 10 μg/ml. The tumor spheroids in these experiments were 430 μm diameter (1 μg/ml) and 410 μm diameter (10 μg/ml). The baselines were taken as described above. After 40 minutes, the original growth medium was replaced by medium with Paclitaxel. The data was collected for six hours, and the resulting macrospectrograms of the experiments are shown in FIG. 9b for 1 μg/ml and FIG. 9c for 10 μg/ml.\nThe thresholding used in this example is based on the single-band method using the first case baseline described above that averages the baseline over all pixels for all times. […] Each light speckle in each image represents a mitosis event. […] The mitosis events depicted in the BSI images of FIG. 10 are quantified in the graph of FIG. 11. The y-axis of the graph is the density of the voxels which are in the mitosis phase expressed as a fraction of the mitotic voxels to the total number of voxels for the underlying image. […]"}},
  "data": [
    {"smiles": "CNC(=O)c1cc(Oc2ccc(NC(=O)Nc3ccc(Cl)c(C(F)(F)F)c3)cc2)ccn1", "note": "[Sorafenib]", "values": [
      {"measurement": "homogeneity of the response across the specimen (FIGS. 16c, 17)", "setting": "[1]; BSI image and classification map", "value": "majority of the specimen is unaffected or only slightly affected"},
      {"measurement": "BSI spectral response to drug, spatial distribution (FIG. 16c)", "setting": "[1]; spheroid approximately 600 microns in diameter, periphery vs interior", "value": "highest magnitude in the proliferating shell, with low (dark) response internal to the tumor"}
    ]},
    {"smiles": "COc1cccc2c1C(=O)c1c(O)c3c(c(O)c1C2=O)C[C@@](O)(C(=O)CO)C[C@@H]3O[C@H]1C[C@H](N)[C@H](O)[C@H](C)O1", "note": "[doxorubicin]", "values": [
      {"measurement": "BSI spectral responses of tissue to drug (FIG. 18)", "setting": "[2]", "value": "two very different spectral responses"}
    ]},
    {"smiles": "CC(=O)O[C@H]1C(=O)[C@@]2(C)[C@H]([C@H](OC(=O)c3ccccc3)[C@]3(O)C[C@H](OC(=O)[C@H](O)[C@@H](NC(=O)c4ccccc4)c4ccccc4)C(C)=C1C3(C)C)[C@]1(OC(C)=O)CO[C@@H]1C[C@@H]2O", "note": "[Paclitaxel]", "values": [
      {"measurement": "mitotic events, fraction of mitotic voxels to total voxels over time (FIG. 11)", "setting": "[3]; 1 μg/ml, 430 μm diameter spheroid, compared with negative controls", "value": "fewer mitotic events and decayed faster"},
      {"measurement": "mitosis remaining after drug application (FIG. 11)", "setting": "[3]; 1 μg/ml, six hours after applying", "value": "still slight mitosis"},
      {"measurement": "mitotic events, fraction of mitotic voxels to total voxels over time (FIG. 11)", "setting": "[3]; 410 μm diameter spheroid", "value": "decayed the fastest"},
      {"measurement": "mitosis activity inside the tumor spheroids (BSI images, FIG. 10)", "setting": "[3]; Taxol treated vs untreated, single-band threshold 0.52-1.0 Hz, nearly six hours", "value": "significantly reduced"},
      {"measurement": "mitosis remaining after drug application (FIG. 11)", "setting": "[3]; two hours after applying the drug", "value": "almost no mitosis at all"}
    ]}
  ]
}
